The text below walks through data of patent publication US8912216B2, “Hetaryl-[1,8]naphthyridine derivatives” (Merck Patent GmbH, priority 2010, dated 2014).

SMILES strings stand for the structures. Where a name gives a salt, the structure may show the parent alone. Read-outs that look alike come from different tables or passages of the source.

The test system of experiment [1] is TGF-beta-induced phosphorylation of Smad2 and Smad3 in Mv1-Lu cells. In words: Inhibition of Smad2/3 phosphorylation in Mv1Lu cells (Example 35A). Type of experiment: cell-based, mink Mustela vison. As to conditions: Neogale vison, read-out: TβR activity (Example 35A). The essentials:
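Serum-starved (16-20 h) Mv1-Lu mink lung epithelial cells were pre-incubated 1.5 h with compound dilutions (0.2% DMSO), then stimulated 1 h with 5 ng/ml TGF-beta 1. Phospho-Smad2 (Ser465/467)/Smad3 (Ser423/425) in lysates was measured by ELISA. IC50 came from dose-response fits between stimulated and unstimulated controls.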

The target of another experiment is T1, GST-ALK5 (Homo sapiens, UniProt P36897).
T1 sequence (P36897 34-503): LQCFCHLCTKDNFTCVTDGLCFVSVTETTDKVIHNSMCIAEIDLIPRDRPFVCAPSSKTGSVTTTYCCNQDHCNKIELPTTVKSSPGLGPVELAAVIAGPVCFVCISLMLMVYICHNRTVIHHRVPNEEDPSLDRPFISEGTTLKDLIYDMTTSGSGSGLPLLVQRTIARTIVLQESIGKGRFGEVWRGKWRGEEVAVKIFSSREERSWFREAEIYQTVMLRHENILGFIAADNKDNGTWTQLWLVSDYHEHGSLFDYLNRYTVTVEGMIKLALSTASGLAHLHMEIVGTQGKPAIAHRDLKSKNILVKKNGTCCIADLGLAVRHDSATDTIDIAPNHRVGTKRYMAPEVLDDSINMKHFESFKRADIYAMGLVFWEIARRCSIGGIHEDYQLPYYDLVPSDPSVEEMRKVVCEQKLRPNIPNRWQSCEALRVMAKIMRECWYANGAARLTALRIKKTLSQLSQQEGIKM
The experiment in a line: In-vitro (enzyme) kinase assay, 384-well flashplate (Example 36). Type of experiment: biochemical. As to conditions: read-out: TβR activity (Example 36). In short, it runs like this: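 Radiometric flashplate assay: 31.2 nM GST-ALK5 phosphorylating 439 nM GST-SMAD2 with 3 mM ATP plus ³³P-ATP, in HEPES/MgCl2/MnCl2/DTT/BSA buffer pH 7.4, 45 min at 30 °C, 5-10 compound concentrations. EDTA stop, filtration and washing, then radioactivity counted; IC50 derived from the curve.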

The mark [2] stands for this setting: Mv1-Lu cells, TGF-beta 1 5 ng/ml, phospho-Smad2/3 ELISA.
The mark [3] stands for this setting: GST-ALK5, GST-SMAD2 substrate, 3 mM ATP, 30° C., 45 min.

In the case of `CN1CCN(c2nc(-c3cncc(-c4cc(-c5cc(Cl)ccc5F)nc5ncccc45)c3)no2)CC1` [compound 56, 2-(5-chloro-2-fluoro-phenyl)-4-{5-[5-(4-methyl-piperazin-1-yl)-[1,2,4]oxadiazol-3-yl]-pyridin-3-yl}-[1,8]naphthyridine], the IC50 in experiment [1] (setting [2]) is 0.1 to 1 µM; on GST-ALK5 (setting [3]), less than 0.1 µM.

Regarding `CCN1CCC(c2ccc(-c3cncc(-c4cc(-c5cc(F)ccc5F)nc5ncccc45)c3)cc2)CC1` [compound 123, 2-(2,5-Difluoro-phenyl)-4-{5-[4-(1-ethyl-piperidin-4-yl)-phenyl]-pyridin-3-yl}-[1,8]naphthyridine], the IC50 (in experiment [1] (setting [2]); at GST-ALK5 (setting [3])) was less than 0.1 µM in each case.

As to `Fc1ccc(Cl)cc1-c1cc(-c2cncc(-c3cccc(OCCN4CCCC4)c3)c2)c2cccnc2n1` [compound 158, 2-(5-Chloro-2-fluoro-phenyl)-4-{5-[3-(2-pyrrolidin-1-yl-ethoxy)-phenyl]-pyridin-3-yl}-[1,8]naphthyridine], the IC50 (in experiment [1] (setting [2]); at GST-ALK5 (setting [3])) was less than 0.1 µM each time.

Regarding `CN1CCN(c2ccc(-c3cncc(-c4cc(-c5cc(F)ccc5F)nc5ncccc45)c3)cc2)CC1` [compound 114, 2-(2,5-Difluoro-phenyl)-4-{5-[4-(4-methyl-piperazin-1-yl)-phenyl]-pyridin-3-yl}-[1,8]naphthyridine], the IC50 (in experiment [1] (setting [2]); on GST-ALK5 (setting [3])) was less than 0.1 µM throughout.

On to `Fc1ccc(F)c(-c2cc(-c3cncc(-c4ccc(OC5CCNCC5)cc4)c3)c3cccnc3n2)c1` [compound 120, 2-(2,5-DifIuoro-phenyl)-4-{5-[4-(piperidin-4-yloxy)-phenyl]-pyridin-3-yl}-[1,8]naphthyridine], for which the IC50 (in experiment [1] (setting [2]); at GST-ALK5 (setting [3])) was less than 0.1 µM each time.

Turning to `Cc1cccc(-c2cc(-c3cncc(-c4cnn(C5CCN(C)CC5)c4)c3)c3cccnc3n2)n1` [compound 49, 4-{5-[1-(1-Methyl-piperidin-4-yl)-1H-pyrazol-4-yl]-pyridin-3-yl}-2-(6-methyl-pyridin-2-yl)-[1,8]naphthyridine], the IC50 (in experiment [1] (setting [2]); at GST-ALK5 (setting [3])) was less than 0.1 µM in each case.

Regarding `OC/C=C/Cn1cc(-c2cncc(-c3cc(-c4ccccc4F)nc4ncccc34)c2)cn1` [compound 84], the IC50 was 0.1 to 1 µM in experiment [1] (setting [2]) and less than 0.1 µM on GST-ALK5 (setting [3]).

Regarding `Fc1ccc(Cl)cc1-c1cc(-c2cncc(-c3cnn(C4CCNCC4)c3)c2)c2cccnc2n1` [compound 11, 2-(5-chloro-2-fluoro-phenyl)-4-[5-(1-piperidin-4-yl-1H-pyrazol-4-yl)-pyridin-3-yl]-[1,8]naphthyridine dihydrochloride], the IC50 (in experiment [1]; on GST-ALK5 (setting [3])) was less than 0.1 µM each time.

`Fc1ccc(Cl)cc1-c1cc(-c2cncc(-c3ccc(OCCN4CCCC4)cc3)c2)c2cccnc2n1` [compound 156, 2-(5-Chloro-2-fluoro-phenyl)-4-{5-[4-(2-pyrrolidin-1-yl-ethoxy)-phenyl]-pyridin-3-yl}-[1,8]naphthyridine]: the IC50 (in experiment [1] (setting [2]); on GST-ALK5 (setting [3])) was less than 0.1 µM in each case.

For the compound `CC1(C)CCNc2ccc(-c3cncc(-c4cc(-c5cc(Cl)ccc5F)nc5ncccc45)c3)cc21` [compound 146, 2-(5-Chloro-2-fluoro-phenyl)-4-[5-(4,4-dimethyl-1,2,3,4-tetrahydro-quinolin-6-yl)-pyridin-3-yl]-[1,8]naphthyridine], the IC50 (in experiment [1] (setting [2]); on GST-ALK5 (setting [3])) was 0.1 to 1 µM in each case.

Regarding `CN1CCC(n2cc(-c3cncc(-c4cc(-c5cc(Cl)ccc5F)nc5ncccc45)c3)cn2)C1` (stereo not shown) [compound 58, 2-(5-Chloro-2-fluoro-phenyl)-4-{5-[1-(1-methyl-pyrrolidin-3-yl)-1H-pyrazol-4-yl]-pyridin-3-yl}-[1,8]naphthyridine], the IC50 (in experiment [1] (setting [2]); at GST-ALK5 (setting [3])) was less than 0.1 µM in each case.

As to `Fc1ccc(Cl)cc1-c1cc(-c2cncc(-c3cccc(C(F)(F)F)n3)c2)c2cccnc2n1` [compound 106, 2-(5-Chloro-2-fluoro-phenyl)-4-(6-trifluoromethyl-[2,3′]bipyridinyl-5′-yl)-[1,8]naphthyridine], the IC50 was more than 10 µM in experiment [1] (setting [2]) and 0.1 to 1 µM at GST-ALK5 (setting [3]).

Turning to `Cc1ccn(-c2cc(-c3cncc(Br)c3)c3cccnc3n2)n1` [4-(5-Bromo-pyridin-3-yl)-2-(3-methyl-pyrazol-1-yl)-[1,8]naphthyridine], the IC50 in experiment [1] (Table 2, intermediate, Smad2/3 phosphorylation in Mv1-Lu cells) is more than 10 µM; on GST-ALK5 (Table 2, intermediate, GST-ALK5 flashplate assay), more than 10 µM.

For the compound `Nc1ncc(-c2cc(-c3ccccc3F)nc3ncccc23)c2ccncc12` [compound 72, 4-[2-(2-fluoro-phenyl)-[1,8]naphthyridin-4-yl]-[2,7]naphthyridin-1-ylamine], the IC50 in experiment [1] (setting [2]) was 0.1 to 1 µM; at GST-ALK5 (setting [3]), less than 0.1 µM.

Consider `OCCn1cc(-c2cncc(-c3cc(-c4ccccc4F)nc4ncccc34)n2)cn1` [compound 83, 2-(4-{6-[2-(2-Fluoro-phenyl)-[1,8]naphthyridin-4-yl]-pyrazin-2-yl}-pyrazol-1-yl)-ethanol], for which the figures for the IC50 (in experiment [1] (setting [2]); on GST-ALK5 (setting [3])) were 1 to 10 µM and less than 0.1 µM, respectively.

Turning to `CN1CCC(NC(=O)c2cccc(-c3cncc(-c4cc(-c5cc(Cl)ccc5F)nc5ncccc45)c3)c2)CC1` [compound 126, 3-{5-[2-(5-Chloro-2-fluoro-phenyl)-[1,8]naphthyridin-4-yl]-pyridin-3-yl}-N-(1-methyl-piperidin-4-yl)-benzamide], the IC50 (in experiment [1] (setting [2]); on GST-ALK5 (setting [3])) was 0.1 to 1 µM throughout.

As to `CN1CCN(c2ccnc(-c3cncc(-c4cc(-c5cc(Cl)ccc5F)nc5ncccc45)c3)c2)CC1` [compound 132, 2-(5-Chloro-2-fluoro-phenyl)-4-[4-(4-methyl-piperazin-1-yl)-[2,3′]bipyridinyl-5′-yl]-[1,8]naphthyridine], the IC50 (in experiment [1] (setting [2]); at GST-ALK5 (setting [3])) was less than 0.1 µM each time.

With `CN(C)CCNC(=O)c1ccc(-c2cncc(-c3cc(-c4cc(Cl)ccc4F)nc4ncccc34)c2)cn1` [compound 178, 5′-[2-(5-Chloro-2-fluoro-phenyl)-[1,8]naphthyridin-4-yl]-[3,3′]bipyridinyl-6-carboxylic acid (2-dimethylamino-ethyl)-amide], the IC50 (in experiment [1] (setting [2]); on GST-ALK5 (setting [3])) was 0.1 to 1 µM each time.

Turning to `OCCn1cc(-c2cncc(-c3cc(-c4cc(C(F)(F)F)ccc4F)nc4ncccc34)c2)cn1` [compound 37, 2-(4-{5-[2-(2-Fluoro-5-trifluoromethyl-phenyl)-[1,8]naphthyridin-4-yl]-pyridin-3-yl}-pyrazol-1-yl)-ethanol], the IC50 in experiment [1] (setting [2]) is 0.1 to 1 µM; at GST-ALK5 (setting [3]) it was less than 0.1 µM.

With `CN1CCC(n2cc(-c3cncc(-c4cc(-c5ccccc5F)nc5ncccc45)c3)nn2)CC1` [compound 55, 2-(2-Fluoro-phenyl)-4-{5-[1-(1-methyl-piperidin-4-yl)-1H-[1,2,3]triazol-4-yl]-pyridin-3-yl}-[1,8]naphthyridine], the IC50 (in experiment [1] (setting [2]); on GST-ALK5 (setting [3])) was less than 0.1 µM in each case.

For the compound `CN1CCC(n2cc(-c3cncc(-c4cc(-c5cc(Cl)ccc5F)nc5ncccc45)c3)cn2)CC1` [compound 25, 2-(5-chloro-2-fluoro-phenyl)-4-{5-[1-(1-methyl-piperidin-4-yl)-1H-pyrazol-4-yl]-pyridin-3-yl}-[1,8]naphthyridine], the IC50 (in experiment [1]; on GST-ALK5 (setting [3])) was less than 0.1 µM throughout.

Consider `CN1CCN(c2ccc(-c3cncc(-c4cc(-c5cc(F)ccc5F)nc5ncccc45)c3)nn2)CC1` [compound 140, 2-(2,5-Difluoro-phenyl)-4-{5-[6-(4-methyl-piperazin-1-yl)-pyridazin-3-yl]-pyridin-3-yl}-[1,8]naphthyridine], for which the IC50 in experiment [1] (setting [2]) lay within 1 to 10 µM; at GST-ALK5 (setting [3]), 0.1 to 1 µM.

For `OCCN(CCO)c1cccc(-c2cncc(-c3cc(-c4cc(Cl)ccc4F)nc4ncccc34)c2)n1` [compound 170, 2-[{5′-[2-(5-Chloro-2-fluoro-phenyl)-[1,8]naphthyridin-4-yl]-[2,3′]bipyridinyl-6-yl}-(2-hydroxy-ethyl)amino]-ethanol], the IC50 in experiment [1] (setting [2]) is 0.1 to 1 µM; at GST-ALK5 (setting [3]) it was less than 0.1 µM.

With `Cc1cccc(-c2cc(-c3cncc4ccccc34)c3cccnc3n2)n1` [compound 3, 4-Isoquinolin-4-yl-2-(6-methyl-pyridin-2-yl)-[1,8]naphthyridine], the IC50 in experiment [1] (setting [2]) is more than 10 µM; on GST-ALK5 (setting [3]) it was 1 to 10 µM.

For `Fc1ccc(Cl)cc1-c1cc(-c2cncc(-c3ccccn3)c2)c2cccnc2n1` [compound 103, 4-[2,3′]Bipyridinyl-5′-yl-2-(5-chloro-2-fluoro-phenyl)-[1,8]naphthyridine], the values for the IC50 (in experiment [1] (setting [2]); on GST-ALK5 (setting [3])) were 0.1 to 1 µM and less than 0.1 µM, respectively.

Turning to `Fc1ccc(Cl)cc1-c1cc(-c2cncc3ccccc23)c2ccccc2n1` [compound 1, 2-(5-Chloro-2-fluoro-phenyl)-4-isoquinolin-4-yl-quinoline], the IC50 (in experiment [1] (setting [2]); on GST-ALK5 (setting [3])) was 1 to 10 µM throughout.
